Experimental findings from PubChem BioAssay (NCI) are described below.

Test systems include U251 CNS; OVCAR-3 ovarian; CAKI-1 renal; SK-MEL-28 melanoma; SR leukemia; HCT-116 colon; K-562 leukemia; NCI-H23 lung; BT-549 breast; OVCAR-8 ovarian.
What all share (assay): NCI-60 cell line screen, 48 h

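All cell lines were grown in 96-well plates and treated with compound for 48 hours. TGI denotes the concentration required for complete inhibition of growth.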

For the compound `COc1ccc(/C=C/C(=O)N[C@@H]2C(=O)N3[C@@H]2SC(C)(C)[C@@H]3C(=O)O)cc1OC`, the TGI in the test with U251 CNS, in the test on OVCAR-3 ovarian, in the test on CAKI-1 renal, in the test with SK-MEL-28 melanoma, in the test with SR leukemia and with HCT-116 colon was above 100 µM each time. Besides, the TGI in the test with K-562 leukemia, in the test on NCI-H23 lung, in the test with BT-549 breast and with OVCAR-8 ovarian was above 100 µM throughout.
Take `O=C1CCCC1C(O)(C(F)(F)Cl)C(F)(F)Cl` (stereo not given): the TGI in the test on U251 CNS, in the test with OVCAR-3 ovarian, with CAKI-1 renal, with SK-MEL-28 melanoma, in the test with SR leukemia and with HCT-116 colon was above 10 µM each time. Moreover, the TGI with K-562 leukemia, in the test on NCI-H23 lung, in the test on BT-549 breast and in the test on OVCAR-8 ovarian was above 10 µM each time.
For the compound `CN(C)CCNc1nc2c(c(=O)n(C)c(=O)n2C)n1C`, the TGI in the test on U251 CNS, in the test on OVCAR-3 ovarian, in the test with CAKI-1 renal, in the test on SK-MEL-28 melanoma, with SR leukemia and with HCT-116 colon was above 100 µM each time. The TGI in the test with K-562 leukemia, with NCI-H23 lung, in the test on BT-549 breast and in the test on OVCAR-8 ovarian was above 100 µM each time.
In the case of `O=C(O)COc1cccc2ccccc(=O)c12`, the TGI in the test on U251 CNS, in the test with OVCAR-3 ovarian, in the test on CAKI-1 renal, in the test with SK-MEL-28 melanoma, in the test with SR leukemia and in the test on HCT-116 colon was above 100 µM throughout. Moreover, the TGI with K-562 leukemia, in the test on NCI-H23 lung, in the test with BT-549 breast and in the test on OVCAR-8 ovarian was above 100 µM throughout.
As to `O=C1C=C(NCCc2ccc(O)cc2)C(=O)C=C1NCCc1ccc(O)cc1`, the TGI in the test with U251 CNS was 92.5 µM; with OVCAR-3 ovarian, above 100 µM; with CAKI-1 renal it was above 100 µM; in the test on SK-MEL-28 melanoma it was above 100 µM; in the test with SR leukemia it was above 100 µM; in the test on HCT-116 colon it was above 100 µM. The TGI in the test on K-562 leukemia, in the test on NCI-H23 lung, in the test on BT-549 breast and in the test on OVCAR-8 ovarian was above 100 µM each time.
With `CC(=O)Oc1ccc(C2SCc3nc4ccccc4n32)cc1` (stereo not given), the TGI with U251 CNS is above 100 µM; in the test on OVCAR-3 ovarian, above 100 µM; in the test with CAKI-1 renal it was above 93.2 µM; with SK-MEL-28 melanoma, above 100 µM; in the test with SR leukemia, above 73 µM; in the test with HCT-116 colon, above 100 µM. Also, the TGI was above 100 µM in the test with K-562 leukemia, above 100 µM with NCI-H23 lung, above 53.3 µM in the test with BT-549 breast and above 100 µM in the test with OVCAR-8 ovarian.
Turning to `CC(C)N=C(NC#N)NS(=O)(=O)c1cnccc1NC1CCCCCCC1`, the TGI in the test on U251 CNS, with OVCAR-3 ovarian, in the test on CAKI-1 renal, with SK-MEL-28 melanoma, in the test on SR leukemia and with HCT-116 colon was above 100 µM throughout. The TGI in the test on K-562 leukemia, in the test on NCI-H23 lung, in the test on BT-549 breast and with OVCAR-8 ovarian was above 100 µM in each case.
For the compound `COc1cc(CNC(=O)CCCCCCCCCCSC#N)ccc1O`, the TGI with U251 CNS was 34.1 µM; with OVCAR-3 ovarian, 26.2 µM; with CAKI-1 renal, 36.8 µM; in the test on SK-MEL-28 melanoma, 21.1 µM; with SR leukemia, 91.5 µM; in the test with HCT-116 colon it was 28.1 µM. Further, the TGI in the test with K-562 leukemia came out at 88.5 µM; in the test with NCI-H23 lung, 43 µM; in the test on BT-549 breast it was 44.6 µM; in the test with OVCAR-8 ovarian, 43.2 µM.
With `O=[N+]([O-])C(=C(\Cl)NCCO)/C(Cl)=C(/Cl)Br`, the TGI in the test with U251 CNS amounted to 6.27 µM; with OVCAR-3 ovarian, 2.62 µM; in the test on CAKI-1 renal, 1.85 µM; with SK-MEL-28 melanoma it was 5.51 µM; in the test on SR leukemia, 5.25 µM; with HCT-116 colon, 5.18 µM. The TGI was 2.97 µM in the test with K-562 leukemia, 11.1 µM in the test with NCI-H23 lung, 4.2 µM with BT-549 breast and 7.31 µM with OVCAR-8 ovarian.
Consider `FC1(F)SC2CCCCCCCCCCC2C1(F)F` (stereo not given), for which the TGI with U251 CNS is 63.6 µM; in the test with OVCAR-3 ovarian it was 39.1 µM; in the test on CAKI-1 renal, above 100 µM; in the test on SK-MEL-28 melanoma, 71 µM; in the test with SR leukemia, above 100 µM; in the test with HCT-116 colon, 37.1 µM. Moreover, the TGI with K-562 leukemia is 35.3 µM; in the test on NCI-H23 lung, 80.1 µM; in the test on BT-549 breast, above 100 µM; with OVCAR-8 ovarian it was above 100 µM.
Consider `COc1ccc2oc(=O)c(-c3nc4ccccc4s3)cc2c1`, for which the TGI with U251 CNS was above 49.6 µM; with OVCAR-3 ovarian it was 43.7 µM; with CAKI-1 renal, above 51.8 µM; in the test on SK-MEL-28 melanoma, above 100 µM; with SR leukemia, above 100 µM; in the test with HCT-116 colon it was 37.6 µM. For the same compound, the TGI in the test on K-562 leukemia was above 100 µM; with NCI-H23 lung, above 63.9 µM; with BT-549 breast it was above 100 µM; in the test with OVCAR-8 ovarian it was 36.9 µM.
In the case of `C[C@H](OC(=O)/C=C/c1ccc(O)c(O)c1)[C@H](C)OC(=O)/C=C/c1ccc(O)c(O)c1`, the TGI in the test on U251 CNS was above 100 µM; in the test on OVCAR-3 ovarian it was 14.8 µM; in the test on CAKI-1 renal, above 100 µM; in the test with SK-MEL-28 melanoma it was 28.6 µM; in the test with SR leukemia, above 100 µM; with HCT-116 colon it was 23.3 µM. Further, the TGI in the test on K-562 leukemia was above 100 µM; with NCI-H23 lung it was 18 µM; in the test on BT-549 breast it was 24.1 µM; with OVCAR-8 ovarian, 26.2 µM.
As to `COC(=O)C1=C(C(=O)OC)C2CCC1CC2=O` (stereo not given), the TGI in the test with U251 CNS, in the test on OVCAR-3 ovarian, with CAKI-1 renal, in the test with SK-MEL-28 melanoma, in the test with SR leukemia and with HCT-116 colon was above 100 µM each time. In addition, the TGI in the test on K-562 leukemia, in the test with NCI-H23 lung, in the test with BT-549 breast and in the test with OVCAR-8 ovarian was above 100 µM throughout.
